# Experimental data taken from patent publication US20210368850A1, “VAPORIZABLE FORMULATION” (NICOVENTURES TRADING LIMITED, priority 2018, published 2021).
# What was measured:
# [1] = from the literature, cited from earlier work; for Boiling point (° C.) @ 760 mmHg unless stated: @ 760 mmHg (atmospheric pressure), approximate
# volunteers [2] = assay: Example 1 observational testing: perceived cooling intensity, Vype eTank Pro e-cigarette; assay type: in vivo; settings: 10 volunteers
# Description: 10 volunteers were asked to use each cooling agent sample in a Vype eTank Pro (an electronic cigarette device). All cooling agents were used at a concentration of 0.18% except for menthol which in one sample was used at the current commercial concentration of 1.235%. Each of the menthol samples were tested for comparative purposes.
# (§1) Each volunteer was asked to assess the cooling intensity on an objective basis (i.e. not considering personal preference) and a subjective basis. The objective assessment required the volunteer to rate the overall perceived cooling intensity from 0 to 10, where 0 was no cooling perceivable and 10 was very strong cooling sensation, and to place the cooling sensation, e.g. in the mouth, throat etc. The subjective assessment required the cooling intensity to be ranked as (1) much too low, (2) slightly too low, (3) just right, (4) slightly too high or (5) much too high.
# [3] = cited from earlier work; for Vapor pressure (mmHg) @ 25° C.: approximate, from the literature
# [4] = Thermogravimetric analysis (TGA) of mass loss on heating; assay type: physicochemical; settings: 30° C. to 600° C. at 5° C./min; for Tpeak of mass loss (° C.) Air (rep 1) / Tpeak of mass loss (° C.) Air (rep 2): TGA in air; for Tpeak of mass loss (° C.) Nitrogen (rep 1) / Tpeak of mass loss (° C.) Nitrogen (rep 2): TGA in nitrogen
# Description: Prior to panel testing, the cooling agents were subjected to thermogravimetric analysis (TGA) to understand their behavior as they are heated. As is known in the art, TGA is an analytical method which can monitor the mass loss of a sample as it is heated to temperatures of up to 1000° C. and higher.
# All measurements were carried out on a Perkin Elmer STA6000 TGA thermogravimetric analyzer. For solid samples, a spatula was used to transfer 5-20 mg of material into the crucible of the analyzer. Oils were introduced to the instrument by transferring 5-20 mg using a Pasteur pipette onto a small portion of Cambridge filter pad which was placed in the crucible. All samples were heated from 30° C. to 600° C. at a constant rate of 5° C./min. This was carried out for each compound twice in air and twice in nitrogen. For a small number of samples, the run was stopped at 500-600° C. when full mass loss had been observed. For comparative purposes, menthol was also analyzed.
# The onset temperature of mass loss for each compound was determined by visual inspection of the TGA traces on the computer software and the results are summarized in Table 2.
# volunteers [5] = assay: Example 2: cooling intensity of WS-3 e-liquid samples, eTank Pro e-cigarette; assay type: in vivo; settings: minimum of 4 volunteers, scale 0-10
# Text: A minimum of 4 volunteers were asked to test each of the following e-liquid samples in an eTank Pro (an electronic cigarette device): • WS-3 at 2.5 wt % in glycerol/propylene glycol; • WS-3 at 5 wt % in glycerol/propylene glycol; and • WS-3 at 10 wt % in glycerol/propylene glycol.
# as §1, with “basis in the same manner as Example 1.” for “basis.”
# [6] = 0.18% in e-liquid, 0 = no cooling perceivable, 10 = very strong cooling sensation
SMILES,Tpeak of mass loss (° C.) Air (rep 1) [4],Tpeak of mass loss (° C.) Air (rep 2) [4],Tpeak of mass loss (° C.) Nitrogen (rep 1) [4],Tpeak of mass loss (° C.) Nitrogen (rep 2) [4],Boiling point (° C.) @ 760 mmHg unless stated [1],Average Cooling Intensity (0-10) (volunteers [2]; [6]),Vapor pressure (mmHg) @ 25° C. [3],"Average Cooling Intensity (0-10) (volunteers [2]; 1.235% (current commercial concentration) in e-liquid, scale 0-10)",Vapor pressure ([3]; 25° C.),Boiling point (° C.) ([1]; @ 2.00 mmHg),Average Cooling Intensity (0-10) (volunteers [5]; 2.5 wt % in glycerol/propylene glycol),Average Cooling Intensity (0-10) (volunteers [5]; 5 wt % in glycerol/propylene glycol),Average Cooling Intensity (0-10) (volunteers [5]; 10 wt % in glycerol/propylene glycol)
"CC(C)[C@@H]1CC[C@@H](C)CC12OCC(CO)O2 (single isomer, unassigned; (-)) [Frescolat ® MGA, (−)-menthone 1,2-glycerol ketal]",93 °C,85 °C,102 °C,94 °C,138-142 °C,1,2.15E−5 mmHg,,,,,,
"CC(O)C(=O)O[C@@H]1C[C@H](C)CC[C@H]1C(C)C (stereo partly drawn) [Frescolat ® ML, (−)-menthyl lactate]",86 °C,88 °C,86 °C,91 °C,304.0 ± 15.0 °C,2,8.58E−5 mmHg,,,,,,
"CC1CCC(C(C)C)C(O)C1 (stereo not shown) [Menthol, menthol, reference compound]",53 °C,55 °C,52 °C,55 °C,212 °C,2.1,,8,approximately 1.02 Pa,,,,
"CC(C)[C@@H]1CC[C@@H](C)C[C@H]1OCC(O)CO (stereo partly drawn) [Coolact ® 10, 3-((−)-menthoxy)propane-1,2-diol]",119 °C,112 °C,115 °C,119 °C,362.8 ± 22.0 °C,0.75,9.88E−7 mmHg,,,,,,
"CC(C)[C@@H]1CC[C@@H](C)C[C@H]1C(=O)NCCc1ccccn1 [Evercool ® 190, (1R,2S,5R)-N-(2-(pyridin-2-yl)ethyl)menthylcarboxamide]",161 °C,164 °C,169 °C,174 °C,461.6 ± 24.0 °C,7.1,1.06E−8 mmHg,,,,,,
"CC(C)[C@@H]1CC[C@@H](C)C[C@H]1OC(=O)CCC(=O)O [Monomenthyl succinate, (−)-menthyl succinate]",144 °C,148 °C,151 °C,151 °C,374.35 °C,,1.23E−6 mmHg,,,,,,

# The next lines start with results.
Tpeak of mass loss (° C.) Air (rep 1) [4],Tpeak of mass loss (° C.) Air (rep 2) [4],Tpeak of mass loss (° C.) Nitrogen (rep 1) [4],Tpeak of mass loss (° C.) Nitrogen (rep 2) [4],SMILES,Boiling point (° C.) @ 760 mmHg unless stated [1],Average Cooling Intensity (0-10) (volunteers [2]; [6]),Vapor pressure (mmHg) @ 25° C. [3],"Average Cooling Intensity (0-10) (volunteers [2]; 1.235% (current commercial concentration) in e-liquid, scale 0-10)",Vapor pressure ([3]; 25° C.),Boiling point (° C.) ([1]; @ 2.00 mmHg),Average Cooling Intensity (0-10) (volunteers [5]; 2.5 wt % in glycerol/propylene glycol),Average Cooling Intensity (0-10) (volunteers [5]; 5 wt % in glycerol/propylene glycol),Average Cooling Intensity (0-10) (volunteers [5]; 10 wt % in glycerol/propylene glycol)
202 °C,203 °C,199 °C,197 °C,COc1ccc(NC(=O)[C@@H]2C[C@H](C)CC[C@H]2C(C)C)cc1 [WS-12],447.8 ± 28.0 °C,,3.25E−8 mmHg,,,,,,
88 °C,88 °C,90 °C,86 °C,"CNC(=O)C(C)(C(C)C)C(C)C [WS-23, N,2,3-trimethyl-2-propan-2-ylbutanamide]",233.00-234.00 °C,2.1818,,,,,,,
149 °C,151 °C,154 °C,158 °C,"CCOC(=O)CNC(=O)[C@@H]1C[C@H](C)CC[C@H]1C(C)C [WS-5, ethyl-2-[[(1R,2S,5R)-5-methyl-2-propan-2-ylcyclohexanecarbonyl]amino] acetate]",,2.5454,,,,151.00 (@ 2.00 mmHg) ° C.,,,
127 °C,132 °C,132 °C,128 °C,"CCNC(=O)[C@H]1C[C@@H](C)CC[C@@H]1C(C)C (stereo in doubt) [WS-3, (1S,2R,5S)-N-ethyl-5-methyl-2-(propan-2-yl)cyclohexanecarboxamide]",340.55 °C,3.045,8.50E−5 mmHg,,,,6,8.5,9.8
